Experimental data reported in US20240208961A1, “EIF4E INHIBITORS AND USES THEREOF” (PIC Therapeutics, Inc., priority 2022, published 2024).

Legend:
MM.1S cells = assay: 5 day viability assay in MM.1S cells, I-11 and dexamethasone (Example 7); type: cell-based
Procedure: (§1) Compound I-11 was studied in the context of dexamethasone combinations, which is used clinically in early Multiple Myeloma prior to the emergence of steroid resistance and is a common backbone therapy. The MM.1S cell line is a steroid sensitive line, and the MM.1R line is the corresponding cell line which has been driven to steroid resistance. The procedure for these studies was as follows:
(§2) Day 1: Cell Seeding and Compound Dosing
(§3) • Cells were seeded 2×10^5 in 96-well cell culture treated tissue culture plates: 87.5 μL/well; MM.1 S and MM.1R • A 5-fold serial dilution of each compound in DMSO (0-25 mM) was prepared in compound storage plates (stored at −80° C. if not to be used immediately). An 8-point curve was used for compound I-11, and a 6-point curve was used for dexamethasone (0-25 mM). • Cells were rinsed with 1% FBS Media and replaced with 87.5 μL media prior to dosing. • DMSO compound dilution series was diluted in 1% FBS media—2 μL compound in 123 μL media to give a 16× final concentration. Dosing across the plate columns 1-12 (compound I-11 0-400 μM), 6.25 μL 16× in media/well. Dosing down plate rows (columns 1-6 dexamethasone 0-400 μM), 6.25 μL 16× compound in media per well. • Cells were dosed with 12.5 μL for both compounds, with 2 replicates of dosing matrix per 96-well plate. Final volume cells and compound was 100 μL/well. • Media blank 100 μL/well×8 was set up. • All plates were incubated at 37° C.
(§4) Day 6: 5 Day Viability Assay
(§5) • Alamar Blue viability reagent was added (10 μL per well) and incubated for 3 hours at 37° C. prior to fluorescence detection (Ex560 nm/Em590 nm) on a Varioskan Lux multimode plate reader.

MM.1R cells = assay: 5 day viability assay in MM.1R cells, I-11 and dexamethasone (Example 7); type: cell-based
Procedure: as §1, §2, §3, §4, §5

4E-BP1 = assay: Hyperphosphorylation of 4E-BP1 in multiple myeloma cell line MM.1R (FIG. 11A); type: cell-based; conditions: MM.1R cells, 2 hours
MCL-1 protein = MCL-1 protein (eIF4E regulated) levels in multiple myeloma cell line MM.1R (FIG. 11B); type: cell-based; conditions: MM.1R cells, 2 hours
ZR-75-1 tumor = assay: ZR-75-1 subQ CDX model; type: in vivo; conditions: female BALB/c nude mice, 50 mg/kg, PO, QW, FIG. 14
Procedure: Female BALB/c nude mice were inoculated with estrogen tablets (0.36 mg/pellet, 60 days to release) 48 hours before cell inoculation. The xenograft model was established by implantation of […] of ZR-75-1 tumor cell suspension (5×10^6 cells/mouse, with 50% Matrigel) subcutaneously into the right subaxillary of female BALB/c nude mice aged 6-8 weeks. When the average tumor volume reached 153.10 mm^3, the tumor-bearing mice were randomized into treatment groups. The groups were treated as follows: Group 1: vehicle, PO, QW; Group 2: Tamoxifen 10 mg/kg, PO, QD; Group 3: Compound I-11 50 mg/kg, PO, QW.
Cell culture: The ZR-75-1 (breast, ductal carcinoma) cell was purchased from (ATCC® CRL-1500™). The base medium for this cell line ATCC-formulated RPMI-1640 Medium. To make the complete growth medium, the base medium was supplemented with 10% heat inactivated FBS and 1% PS, maintained at 37° C. in an atmosphere containing 5% CO2 in air. The tumor cells were routinely subcultured at a ratio of 1:1.5 to 1:3 every 3-6 days. Cell concentration at harvest time was 5.39×10^7 cells/mL and cell viability was 94.3% before inoculation.
Tumor inoculation: BALB/c nude mice were used in this study. Each mouse was inoculated with estrogen tablets 48 hours before cell inoculation (0.3 mg/pellet, 60 days to release). […]

- IC50 (MM.1S cells; Homo sapiens, MM1.S, 120 h, MM.1S cells (steroid sensitive), 5 days, Alamar Blue, read-out: IC50 (μM), Viability Assessment (5 Days) in MM.1S Cells): 0.423 µM
- IC50 (MM.1R cells; 120 h, MM.1R cells (steroid resistant), 5 days, Alamar Blue, read-out: IC50 (μM), Viability Assessment (5 Days) in MM.1R Cells): 0.179 µM
Structure (SMILES): CC(C)Cc1sc(Nc2ncc(-c3cccs3)cc2C(=O)O)nc1C(C)(C)C [Compound I-11]
- viability of MM.1S cells (MM.1S cells; MM.1S cells, FIG. 12): significant decreases in viability
- impact on viability in combination with dexamethasone (MM.1S cells; MM.1S cells, dosing matrix I-11 x dexamethasone, FIG. 13): additive to dexamethasone
- viability of MM.1R cells (MM.1R cells; MM.1R cells, FIG. 12): significant decreases in viability
- relative levels of hyperphospho-4E-BP1 (4E-BP1): significantly lowers relative levels of hyperphospho-4E-BP1
- MCL-1 protein (eIF4E regulated) levels (MCL-1 protein): reduces
- tumor size growth (ZR-75-1 tumor): reduced tumor size growth
